From PubChem BioAssay (NCI)
Several values for one entry are separate records, joined by “and”; a condition that tells them apart may be missing. Equal values may be shown once.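 Cultured in 96-well plates, cells were exposed to test compound for 48 hours across five concentrations. Abbreviation: GI50, concentration required for 50% inhibition of growth. TGI marks complete inhibition of growth.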

Columns and labels:
Assay in all cases: growth of human tumour cells (NCI), 48 h
786-0 renal = tested on: 786-0 renal
ACHN renal = tested on: ACHN renal
BT-549 breast = tested on: BT-549 breast
CAKI-1 renal = tested on: CAKI-1 renal
HCC-2998 colon = tested on: HCC-2998 colon
K-562 leukemia = tested on: K-562 leukemia
MDA-N = tested on: MDA-N
OVCAR-4 ovarian = tested on: OVCAR-4 ovarian
SF-295 CNS = tested on: SF-295 CNS
SK-OV-3 ovarian = tested on: SK-OV-3 ovarian
SN12C renal = tested on: SN12C renal
UACC-62 melanoma = tested on: UACC-62 melanoma

Compound	TGI (786-0 renal) [µM]	TGI (ACHN renal) [µM]	TGI (BT-549 breast) [µM]	TGI (CAKI-1 renal) [µM]	TGI (HCC-2998 colon) [µM]	TGI (K-562 leukemia) [µM]	TGI (MDA-N) [µM]	TGI (OVCAR-4 ovarian) [µM]	TGI (SF-295 CNS)	TGI (SK-OV-3 ovarian)	TGI (SN12C renal) [µM]	TGI (UACC-62 melanoma) [µM]	GI50 (ACHN renal)	GI50 (OVCAR-4 ovarian)	GI50 (SF-295 CNS)	GI50 (SK-OV-3 ovarian)	GI50 (UACC-62 melanoma)	GI50 (SN12C renal) [µM]
COc1cc(C(=O)N(C(=S)OC23CC4CC(CC(C4)C2)C3)c2ccccc2)cc(OC)c1OC	> 100	> 100	> 100	> 100	61.4	> 100	85.8	> 100	> 100 µM	> 100 µM	> 100	> 100	–	–	–	–	–	–
COC(=O)C1SC[C@H]2C(=O)N(c3ccccc3)C(=O)N12 (stereo not given in full)	> 100	> 100	> 100	> 100	> 100	> 100	> 100	> 100	> 100 µM	> 100 µM	> 100	> 100	–	–	–	–	–	–
COC1C(OC(C)=O)CC(=O)OC(C)C/C=C/C=C\C(O)C(C)CC(CC=O)C1OC1OC(C)C(OC2CC(C)(O)C(OC(=O)CC(C)C)C(C)O2)C(N(C)C)C1O (stereo not given)	> 100	> 100	> 100	> 100	> 100	> 100	> 100	> 100	> 100 µM	> 100 µM	> 100	> 100	–	–	–	–	–	–
COC(=O)C1(Cc2ccc(C)cc2)Cc2c(C)cccc2C1=O (stereo not given)	76.8	76.9	69.7	> 100	42.2	> 100	14.4	98.9	> 100 µM	> 100 µM	43.4	92	–	–	–	–	–	–
COc1ccc(-c2nc(SC)n(C3OC(COC(C)=O)C(OC(C)=O)C(OC(C)=O)C3OC(C)=O)c(=O)c2C#N)cc1 (stereo not given)	> 100	> 100	> 100	> 100	> 100	> 100	> 100	> 100	65.6 µM and > 100 µM	98.4 µM and > 100 µM	> 100	> 100	35.8 µM and > 100 µM	29.3 µM and > 100 µM	24.2 µM and > 100 µM	34.5 µM and > 100 µM	40.5 µM and > 100 µM	–
COc1ccc2[nH]c3c(C)c4ncccc4c(C)c3c2c1	2.85	> 10	> 10	> 10	> 10	> 10	> 10	> 10	9.26 µM	> 10 µM	> 10	> 10	–	–	–	–	–	–
CCOC(=O)/C=C(/C(=O)OCC)n1ccc(=O)n(CC(=O)OCC)c1=O	1.67	1.76	4.61	0.32	5.04	1.62	8.31	–	28.1 µM	27.6 µM	4.61	3.24	–	–	–	–	–	2
CO/N=C(\C(=O)[N-][n+]1cnn(CC(=O)O)c1)c1csc(N)n1	> 10	> 10	> 10	> 10	> 10	> 10	> 10	> 10	–	> 10 µM	> 10	> 10	–	–	–	–	–	–
COc1ccc2c(c1)C(=O)[C@@](Nc1ccc(C=O)cc1)(OC)[C@@](OC)(c1ccc([N+](=O)[O-])cc1)O2	> 10	> 10	> 10	> 10	> 10	> 10	> 10	> 10	> 10 µM	> 10 µM	> 10	> 10	–	–	–	–	–	–
COc1ccc2c(c1)c(=O)c1c(NCCCN(C)C)ccc3ncn2c31	14.9	16.8	32	22.6	9.86	> 56.1	18.8	13	15.2 µM	22.1 µM	18.9	28.7	–	–	–	–	–	–
O=C1CSC(c2cccc(Oc3ccccc3)c2)N1c1cccc(Cl)c1Cl (stereo not given)	87.7	47.9	50.4	> 100	26.2	63.9	58.7	> 100	> 100 µM	> 100 µM	> 100	46.9	–	–	–	–	–	–
CCCCSC1=N/C(=C\c2ccc(N(C)C)cc2)C(Cl)=N1	> 100	> 100	> 100	> 100	> 100	> 100	> 100	> 100	> 100 µM	> 100 µM	> 100	> 100	–	–	–	–	–	–
C=COC(=O)N1C2CCCC(Cl)(C(C)=O)C1CC2 (stereo not given)	> 100	> 100	> 100	> 100	> 100	> 100	> 100	> 100	> 100 µM	> 100 µM	> 100	> 100	–	–	–	–	–	–
O=C1NC(N2CCCCC2)=N/C1=C\c1ccccc1	> 100	> 100	> 100	> 100	> 100	–	> 100	> 100	> 100 µM	> 100 µM	> 100	> 100	–	–	–	–	–	–
NS(=O)(=O)c1nnc(NC(=O)/C=C/C(=O)O)s1	> 100	> 100	> 100	> 100	> 100	> 100	> 100	> 100	> 100 µM	> 100 µM	> 100	> 100	–	–	–	–	–	–
COc1ccc(C(=O)N(Cc2cccnc2)C(=S)N(Cc2cccnc2)C(=O)c2ccc(OC)cc2)cc1	> 100	> 100	> 100	> 100	> 100	> 100	> 100	> 100	> 100 µM	> 100 µM	> 100	> 100	–	–	–	–	–	–
COc1ccc(NC(=S)Nc2c(C)n(C)n(-c3ccccc3)c2=O)cc1	> 100	> 100	> 100	> 100	> 100	> 100	> 100	–	> 100 µM	> 100 µM	–	> 100	–	–	–	–	–	–
